Read-outs that look alike come from different tables or passages of the source.
Assays:
Assay in all cases: Reaction Biology P33 radiolabeled kinase assay, IC50 and time dependence
Type in all cases: biochemical
PI3K-α = PI3K-α (Homo sapiens, UniProt P42336); conditions: for IC50: ATP 10 uM, read-out: Compound IC50* PI3K-α
Experimental: (§1) “Inhibiting kinase activity” means to decrease the production of an phosphor-peptide by a particular kinase that can be separated by analytical techniques. For example, a comprehensive platform of kinase, protease, phosphatase and epigenetic assays that utilizes cutting-edge microfluidics and informatics tools to provide accurate and rapid results. Profiling data in this application were determined using these techniques at Nanosyn Inc. IC50 data were provided by Reaction Biology Inc using a P33 radiolabeled kinase assay.
(§2) The observation of potency and isoform selectivity with time-dependency for PI3K-γ appears to be unprecedented in the literature. In addition, these activities combined with inhibition of p38-α, Raf-1, DDR and CSF-1R, would be complimentary and potentially synergistic activities for both the treatment of certain inflammation based conditions and cancers.

TNK1 = biological target: T1, TNK1 (Homo sapiens, UniProt Q13470); conditions: for IC50: ATP 10 uM, read-out: Compound IC50* TNK1
T1 construct: purchased Reaction Biology Inc (contract assay)
T1 sequence (Q13470 1-666): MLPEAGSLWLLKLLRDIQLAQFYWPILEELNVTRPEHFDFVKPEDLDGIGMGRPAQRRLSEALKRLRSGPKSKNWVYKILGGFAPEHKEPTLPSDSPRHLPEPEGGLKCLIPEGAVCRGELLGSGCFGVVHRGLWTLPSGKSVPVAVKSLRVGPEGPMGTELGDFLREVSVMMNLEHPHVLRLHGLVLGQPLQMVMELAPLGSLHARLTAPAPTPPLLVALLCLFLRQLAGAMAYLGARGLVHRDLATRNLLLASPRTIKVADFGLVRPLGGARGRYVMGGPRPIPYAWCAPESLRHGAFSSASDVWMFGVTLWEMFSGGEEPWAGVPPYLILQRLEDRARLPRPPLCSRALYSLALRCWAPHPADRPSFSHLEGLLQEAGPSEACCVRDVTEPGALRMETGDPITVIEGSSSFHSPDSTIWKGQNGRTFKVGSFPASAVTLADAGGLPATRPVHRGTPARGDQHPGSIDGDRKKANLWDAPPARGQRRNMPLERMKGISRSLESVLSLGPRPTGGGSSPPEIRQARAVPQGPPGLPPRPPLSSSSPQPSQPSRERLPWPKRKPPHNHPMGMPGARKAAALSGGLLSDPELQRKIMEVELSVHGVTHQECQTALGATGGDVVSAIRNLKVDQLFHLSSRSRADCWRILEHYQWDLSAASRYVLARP
Experimental: as §1, §2

ROS/ROS1 = biological target: T2, ROS/ROS1 (Homo sapiens, UniProt P08922); conditions: for IC50: ATP 10 uM, read-out: Compound IC50* ROS/ROS1
T2 construct: purchased Reaction Biology Inc (contract assay)
Experimental: as §1, §2

PI3K-δ = biological target: T3, PI3K-δ (Homo sapiens, UniProt O00329); conditions: for IC50: ATP 10 uM, read-out: Compound IC50* PI3K-δ
T3 construct: purchased Reaction Biology Inc (contract assay)
Experimental: as §1, §2

FMS = FMS (Homo sapiens, UniProt P07333); conditions: for IC50: ATP 10 uM, read-out: Compound IC50* FMS
Experimental: as §1, §2

ARAF = biological target: T4, ARAF (Homo sapiens, UniProt P10398); conditions: for IC50: ATP 10 uM, read-out: Compound IC50* ARAF
T4 construct: purchased Reaction Biology Inc (contract assay)
T4 sequence (P10398 1-606): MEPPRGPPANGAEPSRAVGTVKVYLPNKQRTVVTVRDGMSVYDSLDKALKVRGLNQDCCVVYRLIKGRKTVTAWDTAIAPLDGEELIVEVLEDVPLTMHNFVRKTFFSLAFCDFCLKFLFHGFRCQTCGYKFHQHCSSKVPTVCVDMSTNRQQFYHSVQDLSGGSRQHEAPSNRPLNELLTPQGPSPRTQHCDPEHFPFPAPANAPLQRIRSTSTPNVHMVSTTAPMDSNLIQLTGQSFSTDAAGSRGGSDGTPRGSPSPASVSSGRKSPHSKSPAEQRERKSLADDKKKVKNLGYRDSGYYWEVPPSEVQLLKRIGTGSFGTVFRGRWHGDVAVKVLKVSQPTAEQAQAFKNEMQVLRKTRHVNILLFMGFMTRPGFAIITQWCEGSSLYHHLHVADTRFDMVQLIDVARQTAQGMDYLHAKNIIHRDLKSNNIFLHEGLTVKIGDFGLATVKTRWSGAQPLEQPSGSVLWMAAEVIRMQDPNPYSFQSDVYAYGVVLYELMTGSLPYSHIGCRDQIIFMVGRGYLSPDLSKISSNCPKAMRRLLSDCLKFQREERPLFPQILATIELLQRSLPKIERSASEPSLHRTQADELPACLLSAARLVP
Experimental: as §1, §2

RAF1 = biological target: T5, RAF1 (Homo sapiens, UniProt P04049); conditions: for IC50: ATP 10 uM, read-out: Compound IC50* RAF1
T5 construct: literature Ambit Biosciences
Experimental: as §1, §2

P38b/MAPK11 = biological target: T6, P38b/MAPK11 (Homo sapiens, UniProt Q15759); conditions: for IC50: ATP 10 uM, read-out: Compound IC50* P38b/MAPK11
T6 construct: purchased Reaction Biology Inc (contract assay)
Experimental: as §1, §2

T6 sequence (Q15759 whole entry): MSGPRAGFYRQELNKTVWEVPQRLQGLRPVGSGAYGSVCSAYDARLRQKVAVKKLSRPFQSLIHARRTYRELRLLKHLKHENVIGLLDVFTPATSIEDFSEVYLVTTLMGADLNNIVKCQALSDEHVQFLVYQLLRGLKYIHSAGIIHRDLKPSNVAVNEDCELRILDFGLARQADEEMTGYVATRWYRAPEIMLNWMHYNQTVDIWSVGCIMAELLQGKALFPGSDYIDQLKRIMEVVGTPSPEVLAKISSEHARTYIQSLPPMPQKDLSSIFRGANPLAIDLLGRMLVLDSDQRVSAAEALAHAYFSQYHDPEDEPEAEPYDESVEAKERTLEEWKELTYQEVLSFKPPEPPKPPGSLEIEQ
Chain of PI3K-α (P42336 whole entry): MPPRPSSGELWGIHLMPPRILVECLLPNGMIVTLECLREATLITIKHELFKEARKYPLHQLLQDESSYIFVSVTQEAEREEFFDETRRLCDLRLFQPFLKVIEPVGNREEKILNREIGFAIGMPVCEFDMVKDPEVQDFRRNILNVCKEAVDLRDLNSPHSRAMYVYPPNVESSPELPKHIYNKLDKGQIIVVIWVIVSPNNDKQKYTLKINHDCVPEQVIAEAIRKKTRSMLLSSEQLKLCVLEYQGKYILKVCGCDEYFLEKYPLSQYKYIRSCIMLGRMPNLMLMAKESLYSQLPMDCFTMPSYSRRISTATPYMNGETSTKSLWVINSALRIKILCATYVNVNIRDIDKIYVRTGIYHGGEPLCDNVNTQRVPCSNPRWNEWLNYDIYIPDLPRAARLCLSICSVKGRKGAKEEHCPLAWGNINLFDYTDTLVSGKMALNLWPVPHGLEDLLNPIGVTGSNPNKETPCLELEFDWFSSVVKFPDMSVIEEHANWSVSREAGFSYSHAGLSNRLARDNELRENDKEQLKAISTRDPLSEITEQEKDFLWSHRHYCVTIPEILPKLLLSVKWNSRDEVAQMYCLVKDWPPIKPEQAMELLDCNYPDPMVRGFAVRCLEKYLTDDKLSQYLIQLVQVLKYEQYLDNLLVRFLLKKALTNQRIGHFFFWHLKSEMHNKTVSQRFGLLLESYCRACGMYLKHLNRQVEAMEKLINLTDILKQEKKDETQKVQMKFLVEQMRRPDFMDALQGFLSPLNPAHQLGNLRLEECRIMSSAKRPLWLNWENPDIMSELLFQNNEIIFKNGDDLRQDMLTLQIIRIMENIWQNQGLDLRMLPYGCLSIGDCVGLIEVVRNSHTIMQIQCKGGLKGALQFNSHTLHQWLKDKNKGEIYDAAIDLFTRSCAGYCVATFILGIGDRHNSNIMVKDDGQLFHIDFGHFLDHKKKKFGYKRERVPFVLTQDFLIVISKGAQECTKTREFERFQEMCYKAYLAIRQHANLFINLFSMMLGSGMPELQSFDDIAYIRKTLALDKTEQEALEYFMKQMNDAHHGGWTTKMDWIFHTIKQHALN
Chain of PI3K-α (P27986 whole entry partner): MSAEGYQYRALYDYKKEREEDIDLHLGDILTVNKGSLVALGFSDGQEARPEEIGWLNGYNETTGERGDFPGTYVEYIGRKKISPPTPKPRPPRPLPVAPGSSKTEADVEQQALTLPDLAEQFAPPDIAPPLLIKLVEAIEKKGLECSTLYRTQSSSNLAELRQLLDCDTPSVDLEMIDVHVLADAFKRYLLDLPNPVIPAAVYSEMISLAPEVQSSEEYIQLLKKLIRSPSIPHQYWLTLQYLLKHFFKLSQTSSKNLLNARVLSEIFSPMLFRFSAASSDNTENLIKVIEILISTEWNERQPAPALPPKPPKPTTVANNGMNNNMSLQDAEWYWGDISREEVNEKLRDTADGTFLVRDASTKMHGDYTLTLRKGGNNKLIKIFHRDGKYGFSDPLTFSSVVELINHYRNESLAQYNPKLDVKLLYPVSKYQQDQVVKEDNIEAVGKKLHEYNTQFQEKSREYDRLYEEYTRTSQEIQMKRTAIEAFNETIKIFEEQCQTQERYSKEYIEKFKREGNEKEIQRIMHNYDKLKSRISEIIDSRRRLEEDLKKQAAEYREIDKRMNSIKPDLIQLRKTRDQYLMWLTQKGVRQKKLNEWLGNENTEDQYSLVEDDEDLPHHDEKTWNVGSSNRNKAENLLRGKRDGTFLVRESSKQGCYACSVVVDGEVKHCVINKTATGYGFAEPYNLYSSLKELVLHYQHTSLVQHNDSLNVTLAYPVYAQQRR
T3 sequence (O00329 whole entry): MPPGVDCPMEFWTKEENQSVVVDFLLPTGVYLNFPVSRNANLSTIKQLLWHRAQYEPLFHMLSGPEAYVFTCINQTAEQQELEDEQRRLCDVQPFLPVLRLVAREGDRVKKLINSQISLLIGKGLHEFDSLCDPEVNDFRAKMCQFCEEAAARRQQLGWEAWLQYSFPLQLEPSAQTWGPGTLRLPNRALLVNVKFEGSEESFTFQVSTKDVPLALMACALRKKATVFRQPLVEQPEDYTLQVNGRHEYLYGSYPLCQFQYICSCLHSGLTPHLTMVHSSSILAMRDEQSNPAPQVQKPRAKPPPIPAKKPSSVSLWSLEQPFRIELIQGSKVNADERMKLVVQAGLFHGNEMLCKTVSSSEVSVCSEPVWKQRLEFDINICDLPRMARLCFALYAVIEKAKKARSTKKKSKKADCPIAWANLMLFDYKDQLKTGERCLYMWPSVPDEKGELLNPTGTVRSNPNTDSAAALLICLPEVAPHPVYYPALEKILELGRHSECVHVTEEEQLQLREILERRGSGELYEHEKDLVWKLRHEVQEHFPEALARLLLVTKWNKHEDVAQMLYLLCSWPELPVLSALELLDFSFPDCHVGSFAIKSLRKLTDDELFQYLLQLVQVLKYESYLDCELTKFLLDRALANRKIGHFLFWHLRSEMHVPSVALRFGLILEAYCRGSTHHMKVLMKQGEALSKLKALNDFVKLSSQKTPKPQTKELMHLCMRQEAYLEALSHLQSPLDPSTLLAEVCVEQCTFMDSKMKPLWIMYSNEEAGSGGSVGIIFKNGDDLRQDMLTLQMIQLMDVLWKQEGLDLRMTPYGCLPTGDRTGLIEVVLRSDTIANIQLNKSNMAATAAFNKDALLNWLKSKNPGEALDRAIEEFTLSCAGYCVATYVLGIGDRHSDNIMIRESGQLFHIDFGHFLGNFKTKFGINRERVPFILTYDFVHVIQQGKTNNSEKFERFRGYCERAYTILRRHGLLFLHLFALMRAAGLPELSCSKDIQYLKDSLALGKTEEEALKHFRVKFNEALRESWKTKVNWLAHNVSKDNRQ
T3 sequence (P27986 whole entry partner): as the sequence (P27986 whole entry partner) above
Chain of FMS (P07333 20-972): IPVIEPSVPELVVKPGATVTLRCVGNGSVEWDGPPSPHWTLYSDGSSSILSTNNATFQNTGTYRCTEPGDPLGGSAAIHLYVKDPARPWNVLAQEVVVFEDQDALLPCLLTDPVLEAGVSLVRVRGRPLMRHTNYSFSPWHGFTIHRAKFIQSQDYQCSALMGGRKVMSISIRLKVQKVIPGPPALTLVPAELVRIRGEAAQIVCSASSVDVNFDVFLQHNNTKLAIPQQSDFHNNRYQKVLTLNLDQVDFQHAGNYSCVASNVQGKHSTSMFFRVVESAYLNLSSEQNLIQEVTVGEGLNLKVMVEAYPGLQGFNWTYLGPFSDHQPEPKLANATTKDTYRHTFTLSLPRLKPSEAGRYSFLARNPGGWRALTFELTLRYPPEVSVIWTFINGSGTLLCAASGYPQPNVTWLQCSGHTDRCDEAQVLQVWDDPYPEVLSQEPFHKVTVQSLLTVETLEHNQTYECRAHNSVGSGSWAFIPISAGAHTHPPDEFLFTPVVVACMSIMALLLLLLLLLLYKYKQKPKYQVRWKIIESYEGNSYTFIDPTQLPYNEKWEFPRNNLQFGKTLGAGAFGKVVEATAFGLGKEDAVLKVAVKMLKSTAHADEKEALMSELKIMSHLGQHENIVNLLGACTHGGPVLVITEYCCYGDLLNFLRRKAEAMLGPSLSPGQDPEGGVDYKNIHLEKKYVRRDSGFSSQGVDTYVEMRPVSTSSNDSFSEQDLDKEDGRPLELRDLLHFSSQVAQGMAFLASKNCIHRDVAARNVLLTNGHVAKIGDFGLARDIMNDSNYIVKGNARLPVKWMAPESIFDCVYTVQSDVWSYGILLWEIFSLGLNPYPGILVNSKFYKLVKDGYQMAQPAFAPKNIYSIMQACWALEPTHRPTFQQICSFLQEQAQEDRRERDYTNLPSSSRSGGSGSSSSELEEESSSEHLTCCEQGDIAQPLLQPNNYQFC
T5 sequence (P04049 whole entry): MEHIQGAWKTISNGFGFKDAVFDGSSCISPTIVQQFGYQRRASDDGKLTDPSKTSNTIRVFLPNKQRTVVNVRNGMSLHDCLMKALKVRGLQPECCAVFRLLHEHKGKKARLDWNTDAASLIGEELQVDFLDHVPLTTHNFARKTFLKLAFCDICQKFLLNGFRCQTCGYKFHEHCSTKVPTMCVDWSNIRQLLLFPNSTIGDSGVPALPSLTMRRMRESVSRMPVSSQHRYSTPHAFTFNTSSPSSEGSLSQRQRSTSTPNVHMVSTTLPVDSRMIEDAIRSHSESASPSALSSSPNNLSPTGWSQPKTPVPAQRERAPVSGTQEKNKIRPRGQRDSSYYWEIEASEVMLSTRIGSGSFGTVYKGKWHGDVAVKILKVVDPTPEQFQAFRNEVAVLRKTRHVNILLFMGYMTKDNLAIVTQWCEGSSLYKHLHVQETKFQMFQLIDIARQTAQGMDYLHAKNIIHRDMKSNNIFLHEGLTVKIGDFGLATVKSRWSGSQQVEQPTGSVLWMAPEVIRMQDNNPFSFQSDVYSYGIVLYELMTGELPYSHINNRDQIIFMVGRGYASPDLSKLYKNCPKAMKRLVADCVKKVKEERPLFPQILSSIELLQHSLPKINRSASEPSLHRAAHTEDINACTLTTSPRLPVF

Which “Time Dependence Observed? PI3K-α” value (PI3K-α; 15 vs 60 Min preincubation) does the source give for `Cc1ccc(NC(=O)c2nc(S(C)(=O)=O)[nH]c2-c2ccc(F)cc2)cc1Nc1nccc(-c2cccnc2)n1` [Inhibitor I-14, 3-(4-(pyridin-3-yl)-pyrimidinyl-2-yl)amino-4-methyl-analine, 5-(4-Fluorophenyl)-2-(methylsulfonyl)-1H-imidazole-4-carboxamide] here?
Its value is “Yes”.

What about the IC50 (PI3K-α; preincubation 15 Min) of the same compound?
The IC50 was 899 nM.

And the IC50 (PI3K-α; preincubation 60 Min)?
Its IC50 is 387 nM.

What about the “Time Dependence Observed? TNK1” value (TNK1; 15 vs 60 Min preincubation) of the same compound?
Its value is “No”.

And the IC50 (TNK1; preincubation 15 Min)?
The IC50 was 210 nM.

What about the IC50 (TNK1; preincubation 60 Min) of the same compound?
Its IC50 is 241 nM.

What about the “Time Dependence Observed? ROS/ROS1” value (ROS/ROS1; 15 vs 60 Min preincubation) of the same compound?
The value was “No”.

And the IC50 (ROS/ROS1; preincubation 15 Min)?
Its IC50 is 1250 nM.

What about the IC50 (ROS/ROS1; preincubation 60 Min) of the same compound?
The IC50 was 1280 nM.

And the “Time Dependence Observed? PI3K-δ” value (PI3K-δ; 15 vs 60 Min preincubation)?
The value was “Yes”.

What about the IC50 (PI3K-δ; preincubation 15 Min) of the same compound?
The IC50 was 3180 nM.

What about the IC50 (PI3K-δ; preincubation 60 Min) of the same compound?
Its IC50 is 1120 nM.

What about the “Time Dependence Observed? FMS” value (FMS; 15 vs 60 Min preincubation) of the same compound?
The value was “No”.

And the IC50 (FMS; preincubation 15 Min)?
Its IC50 is 220 nM.

And the IC50 (FMS; preincubation 60 Min)?
The IC50 was 240 nM.

What about the “Time Dependence Observed? ARAF” value (ARAF; 15 vs 60 Min preincubation) of the same compound?
Its value is “Yes”.

What about the IC50 (ARAF; preincubation 15 Min) of the same compound?
The IC50 was 1390 nM.

What about the IC50 (ARAF; preincubation 60 Min) of the same compound?
Its IC50 is 1300 nM.

What about the “Time Dependence Observed? RAF1” value (RAF1; 15 vs 60 Min preincubation) of the same compound?
The value was “Yes”.

And the IC50 (RAF1; preincubation 15 Min)?
The IC50 was 96.5 nM.

What about the IC50 (RAF1; preincubation 60 Min) of the same compound?
The IC50 was 81.3 nM.

And the “Time Dependence Observed? P38b/MAPK11” value (P38b/MAPK11; 15 vs 60 Min preincubation)?
The value was “No”.

What about the IC50 (P38b/MAPK11; preincubation 15 Min) of the same compound?
The IC50 was 1020 nM.

And the IC50 (P38b/MAPK11; preincubation 60 Min)?
The IC50 was 1080 nM.
